Test results from patent publication US20250339443A1, “METHOD FOR TREATING OR PREVENTING CALCIUM RELEASE-ACTIVATED CALCIUM CHANNEL OR DISCOIDIN DOMAIN RECEPTOR 2 RELATED DISORDERS OR CONDITIONS” (LumiSTAR Biotechnology, Inc., priority 2023, published 2025).

Target: T1, DDR2 (Homo sapiens, UniProt Q16832)
T1 construct: expressed in transfected cells; host or cells: HEK293T
T1 sequence (Q16832 22-855): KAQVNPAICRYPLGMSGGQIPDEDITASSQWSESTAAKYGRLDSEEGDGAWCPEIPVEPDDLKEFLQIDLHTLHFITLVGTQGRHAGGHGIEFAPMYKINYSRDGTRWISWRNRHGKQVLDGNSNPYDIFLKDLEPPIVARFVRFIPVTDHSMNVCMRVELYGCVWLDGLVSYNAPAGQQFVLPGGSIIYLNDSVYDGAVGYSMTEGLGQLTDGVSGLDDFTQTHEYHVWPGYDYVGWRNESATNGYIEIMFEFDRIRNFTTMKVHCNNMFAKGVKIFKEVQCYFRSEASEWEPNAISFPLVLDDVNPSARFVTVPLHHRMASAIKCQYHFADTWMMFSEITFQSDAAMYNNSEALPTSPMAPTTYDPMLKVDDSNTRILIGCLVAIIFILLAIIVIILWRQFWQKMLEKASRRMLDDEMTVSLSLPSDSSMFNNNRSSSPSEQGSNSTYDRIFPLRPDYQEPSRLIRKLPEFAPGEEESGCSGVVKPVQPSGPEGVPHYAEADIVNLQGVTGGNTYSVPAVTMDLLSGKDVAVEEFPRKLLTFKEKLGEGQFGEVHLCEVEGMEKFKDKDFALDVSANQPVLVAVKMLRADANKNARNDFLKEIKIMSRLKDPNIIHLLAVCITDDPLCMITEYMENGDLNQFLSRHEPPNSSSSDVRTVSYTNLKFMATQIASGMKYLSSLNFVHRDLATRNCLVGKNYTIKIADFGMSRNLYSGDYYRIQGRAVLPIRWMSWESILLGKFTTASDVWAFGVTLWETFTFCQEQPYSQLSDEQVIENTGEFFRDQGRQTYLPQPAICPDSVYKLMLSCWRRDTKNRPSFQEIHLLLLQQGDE
Assay: DDR2 activation (anti-phosphotyrosine Western blot) in HEK293T cells overexpressing DDR2, collagen-stimulated
Format: cell-based
Conditions: 10 μM pretreatment 30 minutes, then 50 μg/mL type I collagen 12 hours
Protocol: FIG. 1A, FIG. 1B, FIG. 1C, FIG. 1D, FIG. 1E, FIG. 1F, FIG. 1G, FIG. 1H, FIG. 1I, FIG. 1J, FIG. 1K, FIG. 1L, FIG. 1M, and FIG. 1N show WRG-28 and atovaquone (Av) suppress the activation of DDR2 and calcium release-activated calcium (CRAC) channel. FIG. 1A indicates HEK293T cells were transiently overexpressed with DDR2 and then pretreated with different compounds (10 μM), including WRG-28, Av, donepezil hydrochloride (Dh), terazosin hydrochloride (Th), verapamil and flecainide for 30 minutes. Verapamil and flecainide were used as negative control here. After that, cells were treated with 50 μg/mL type I collagen for 12 hours. Cell lysates were harvested and subjected to Western blot analysis with antibodies against phosphotyrosine antibody (clone 4G10), DDR2, and β-actin. […] CRAC channel activity was evaluated by applying 1 μM thapsigargin (Thap.) in a calcium-free solution to deplete the endoplasmic reticulum calcium store, followed by the reintroduction of 2 mM Ca^2+ in an external solution. […] Further analyses are presented in FIG. 1I and FIG. 1J, where the second peak of each wave and rate of entry were analyzed. […] The Orai1 and Stim1 puncta in HEK293T cells overexpressed with CFP-Orai1/Stim1-mCherry were assessed. […]
Cell lysates were harvested in RIPA buffer (150 mM NaCl, 1 mM EGTA, 50 mM Tris pH 7.4, 10% glycerol, 1% Triton X-100, 1% sodium deoxycholate, 0.1% SDS, and protease inhibitor cocktail) and collected from culture dish with cell scrapers. […] The protein expression levels were assessed by specific primary antibodies, including antibodies against phosphotyrosine (clone 4G10; Millipore), DDR2 (R&D), α-SMA (Sigma), Collagen 1a1 (Boster), E-cadherin (BD Biosciences), SGLT2 (Proteintech), NHE1 (Novus) and β-actin (Clone C4, Millipore), followed by incubating with secondary antibodies conjugated with HRP and detected by ECL kit (Thermo Scientific).
To examine the impact of these compounds on DDR2 activation, HEK293T cells overexpressing DDR2 were pretreated with various compounds. […] The activation of DDR2 was evaluated using an anti-phosphotyrosine antibody. […]

For `CCNS(=O)(=O)c1ccc(COc2ccc3nc4ccc(=O)cc-4oc3c2)cc1` [WRG-28], which “activation of DDR2 (phosphotyrosine)” value is on record?
The value was “suppress”.
